# Where a SMILES comes first, the peptide text is derived from it. Bridges are numbered along the chain shown (N, C = ends). [ ]: non-standard residue; d: D form. The star is where a group is joined. Phe(4-COOH) = N[C@@H](Cc1ccc(C(=O)O)cc1)C(=O)O; Asp(3,3-Me2) = CC(C)(C(=O)O)[C@H](N)C(=O)O; Bip = N[C@@H](Cc1ccc(-c2ccccc2)cc1)C(=O)O; Phe(3-Cl) = N[C@@H](Cc1cccc(Cl)c1)C(=O)O; Phe(3-Me) = Cc1cccc(C[C@H](N)C(=O)O)c1; Phe(2-Me) = Cc1ccccc1C[C@H](N)C(=O)O; Val(3-OH) = CC(C)(O)[C@H](N)C(=O)O; 4Pal = N[C@@H](Cc1ccncc1)C(=O)O; Cha = N[C@@H](CC1CCCCC1)C(=O)O; dCha = N[C@H](CC1CCCCC1)C(=O)O; Carboxymethyl = O=C(O)C*; Nle = CCCC[C@H](N)C(=O)O; Orn = NCCC[C@H](N)C(=O)O; Pra = C#CC[C@H](N)C(=O)O; Dab = NCC[C@H](N)C(=O)O; Dap = NC[C@H](N)C(=O)O; Ac3c = NC1(C(=O)O)CC1
# Biological target: T1, human PD-1 / PD-L1-Ig binding on Jurkat cell line over-expressing human PD-1 (Jurkat-PD-1) (Homo sapiens, UniProt Q15116)
# T1 construct: expressed in transfected cells; host or cells: Jurkat
# T1 sequence (Q15116 25-288): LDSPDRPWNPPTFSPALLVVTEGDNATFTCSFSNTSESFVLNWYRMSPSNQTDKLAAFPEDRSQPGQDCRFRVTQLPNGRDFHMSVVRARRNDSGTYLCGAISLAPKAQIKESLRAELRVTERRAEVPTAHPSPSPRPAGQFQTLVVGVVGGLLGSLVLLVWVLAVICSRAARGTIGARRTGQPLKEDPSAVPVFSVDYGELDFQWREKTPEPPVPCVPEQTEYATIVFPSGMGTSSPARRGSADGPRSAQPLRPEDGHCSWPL
# Test: Jurkat-PD-1 Cell Binding High-Content Screening Assay (CBA)
# Format: cell-based
# Conditions: Jurkat-PD-1 cells, PE-labeled PD-L1-Ig 20 nM final; read-out: Jurkat HPD1_PDL1 IC50
# Outline: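 Binding of fluorescent PD-L1-Ig (phycoerythrin linked via the Ig tag, 20 nM final) to PD-1-overexpressing Jurkat cells was imaged after a 2 h, 37° C compound pretreatment and 1 hour ligand incubation.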
row,SMILES,IC50 [nM]
1,CC(C)C[C@H]1NC(=O)[C@H](CCCN)NC(=O)[C@H](C(C)C)NC(=O)[C@H](Cc2ccc(-c3ccccc3)cc2)NC(=O)[C@H](C(C)C)NC(=O)[C@H](Cc2c[nH]c3ccccc23)NC(=O)[C@H](CC(=O)O)NC(=O)[C@H](Cc2ccc(OCC(=O)O)cc2)NC(=O)[C@H](CN)NC(=O)CSC[C@@H](C(=O)N[C@@H](C)C(N)=O)NC(=O)[C@H](CCCCN)NC(=O)[C@H](C(C)C)NC(=O)[C@H](CC2CCCCC2)NC(=O)[C@H](CCN)NC1=O [Compound 1744] ({CH2CO}-[Dap]Y(Carboxymethyl)DWV[Bip]V[Orn][dL][Dab][Cha]VKCA-NH2; thioether N-14),4.7
2,CCC(C)[C@@H]1NC(=O)[C@H](Cc2ccc(-c3ccccc3)cc2)NC(=O)[C@H](C(C)C)NC(=O)[C@H](Cc2cccc(C)c2C)NC(=O)[C@H](CC(=O)O)NC(=O)[C@H](Cc2ccc(OCC(=O)O)cc2)NC(=O)[C@H](CN)NC(=O)CSC[C@@H](C(=O)N[C@@H](C)C(N)=O)NC(=O)[C@H]([C@@H](C)O)NC(=O)[C@H](C(C)C)NC(=O)[C@H](CC2CCCCC2)NC(=O)[C@H](CCN)NC(=O)[C@@H](CC(C)C)NC(=O)[C@H](CCCN)NC1=O (some centres unmarked) [Compound 2242],10.3
3,CC[C@H](C)[C@@H]1NC(=O)[C@H](Cc2ccc(-c3ccccc3)cc2)NC(=O)[C@H](C(C)C)NC(=O)[C@H](Cc2cccc(Cl)c2)NC(=O)[C@H](CC(=O)O)NC(=O)[C@H](Cc2ccncc2)NC(=O)[C@H](CN)NC(=O)CSC[C@@H](C(=O)N[C@@H](C)C(N)=O)NC(=O)[C@H]([C@@H](C)O)NC(=O)[C@H](C(C)C)NC(=O)[C@H](CC2CCCCC2)NC(=O)[C@H](CCN)NC(=O)[C@@H](CC(C)C)NC(=O)[C@H](CCCN)NC1=O [Compound 1562],20.2
4,Cc1ccccc1C[C@@H]1NC(=O)[C@H](CCN)NC(=O)[C@@H](CC(C)C)NC(=O)[C@H](CCCN)NC(=O)[C@H](CCC(=O)O)NC(=O)[C@H](Cc2ccc(-c3ccccc3)cc2)NC(=O)[C@H](C(C)C)NC(=O)[C@H](Cc2c[nH]c3ccccc23)NC(=O)[C@H](CC(=O)O)NC(=O)[C@H](Cc2ccc(OCC(=O)O)cc2)NC(=O)[C@H](CN)NC(=O)CSC[C@@H](C(=O)N[C@@H](C)C(N)=O)NC(=O)[C@H]([C@@H](C)O)NC(=O)[C@H](C(C)C)NC1=O [Compound 1484] ({CH2CO}-[Dap]Y(Carboxymethyl)DWV[Bip]E[Orn][dL][Dab][Phe(2-Me)]VTCA-NH2; thioether N-14),12.3
5,CCCC[C@@H]1NC(=O)[C@H](CCN)NC(=O)[C@@H](CC(C)C)NC(=O)[C@H](CCCN)NC(=O)[C@H]([C@@H](C)CC)NC(=O)[C@H](Cc2ccc(-c3ccccc3)cc2)NC(=O)[C@H](C(C)C)NC(=O)[C@H](Cc2c[nH]c3ccccc23)NC(=O)[C@H](CC(=O)O)NC(=O)[C@H](Cc2ccc(O)cc2)NC(=O)[C@H](Cc2ccc(OCC(=O)O)cc2)NC(=O)CSC[C@@H](C(=O)N[C@@H](C)C(N)=O)NC(=O)[C@H]([C@@H](C)O)NC(=O)[C@H](C(C)C)NC1=O [Compound 1168] ({CH2CO}-Y(Carboxymethyl)YDWV[Bip]I[Orn][dL][Dab][Nle]VTCA-NH2; thioether N-14),26.3
6,Cc1cccc(C[C@@H]2NC(=O)[C@H](CC(=O)O)NC(=O)[C@H](Cc3ccc(OCC(=O)O)cc3)NC(=O)[C@H](CN)NC(=O)CSC[C@@H](C(=O)N[C@@H](C)C(N)=O)NC(=O)[C@H]([C@@H](C)O)NC(=O)[C@H](C(C)C)NC(=O)[C@H](CC3CCCCC3)NC(=O)[C@H](CCN)NC(=O)[C@@H](CC(C)C)NC(=O)[C@H](CCCN)NC(=O)[C@H](CCC(=O)O)NC(=O)[C@H](Cc3ccc(-c4ccccc4)cc3)NC(=O)[C@H](C(C)C)NC2=O)c1 [Compound 1302],6.1
7,CC(C)[C@@H]1NC(=O)[C@H](Cc2c[nH]c3ccccc23)NC(=O)[C@H](CC(=O)O)NC(=O)[C@H](Cc2ccc(OCC(=O)O)cc2)NC(=O)[C@H](CN)NC(=O)CSC[C@@H](C(=O)N[C@@H](C)C(N)=O)NC(=O)[C@H]([C@@H](C)O)NC(=O)[C@H](C(C)C)NC(=O)[C@H](CC2CCCCC2)NC(=O)[C@H](CCN)NC(=O)[C@@H](CC2CCCCC2)NC(=O)[C@H](CCCN)NC(=O)[C@H](CCC(=O)O)NC(=O)[C@H](Cc2ccc(-c3ccccc3)cc2)NC1=O [Compound 1443] ({CH2CO}-[Dap]Y(Carboxymethyl)DWV[Bip]E[Orn][dCha][Dab][Cha]VTCA-NH2; thioether N-14),11.8
8,CC(C)C[C@H]1NC(=O)[C@H](CCCN)NC(=O)[C@H](CCC(=O)O)NC(=O)[C@H](Cc2ccc(-c3ccccc3)cc2)NC(=O)[C@H](C(C)C)NC(=O)[C@H](Cc2cccc(Cl)c2)NC(=O)[C@H](CC(=O)O)NC(=O)[C@H](Cc2ccc(O)cc2)NC(=O)[C@H](CC(N)=O)NC(=O)CSC[C@@H](C(=O)N[C@@H](C)C(N)=O)NC(=O)[C@H]([C@@H](C)O)NC(=O)[C@H](C(C)C)NC(=O)[C@H](CC2CCCCC2)NC(=O)[C@H](CCN)NC1=O [Compound 1494] ({CH2CO}-NYD[Phe(3-Cl)]V[Bip]E[Orn][dL][Dab][Cha]VTCA-NH2; thioether N-14),13.8
9,Cc1cccc(C[C@@H]2NC(=O)[C@H](CC(=O)O)NC(=O)[C@H](Cc3ccc(OCC(=O)O)cc3)NC(=O)[C@H](CN)NC(=O)CSC[C@@H](C(=O)N[C@@H](C)C(N)=O)NC(=O)[C@H]([C@@H](C)O)NC(=O)[C@H](C(C)C)NC(=O)[C@H](CC3CCCCC3)NC(=O)[C@H](CCN)NC(=O)[C@@H](CC(C)C)NC(=O)[C@H](CCCN)NC(=O)[C@H](C(C)C)NC(=O)[C@H](Cc3ccc(-c4ccccc4)cc3)NC(=O)[C@H](CC(C)C)NC2=O)c1 [Compound 1303] ({CH2CO}-[Dap]Y(Carboxymethyl)D[Phe(3-Me)]L[Bip]V[Orn][dL][Dab][Cha]VTCA-NH2; thioether N-14),4.8

# The next lines start with the values.
row,IC50 [nM],SMILES
1,201,Cc1cccc(C[C@@H]2NC(=O)[C@H](CC(=O)O)NC(=O)[C@H](Cc3ccc(C(=O)O)cc3)NC(=O)[C@H](Cc3ccncc3)NC(=O)CSC[C@@H](C(=O)N[C@@H](CCN)C(N)=O)NC(=O)[C@H](CO)NC(=O)[C@H](C(C)(C)O)NC(=O)[C@H](CC3CCCCC3)NC(=O)[C@H](CCN)NC(=O)[C@@H](CC(C)C)NC(=O)[C@H](CCCN)NC(=O)[C@H](Cc3ccc(C(=O)O)cc3)NC(=O)[C@H](Cc3ccc(-c4ccccc4)cc3)NC(=O)[C@H](Cc3ccc(OCC(=O)O)cc3)NC2=O)c1 [Compound 2661] ({CH2CO}-[4Pal][Phe(4-COOH)]D[Phe(3-Me)]Y(Carboxymethyl)[Bip][Phe(4-COOH)][Orn][dL][Dab][Cha][Val(3-OH)]SC[Dab]-NH2; thioether N-14)
2,26.7,Cc1cccc(C[C@@H]2NC(=O)[C@H](CC(=O)O)NC(=O)[C@H](Cc3ccc(OCC(=O)O)cc3)NC(=O)[C@H]([C@@H](C)O)NC(=O)CSC[C@@H](C(N)=O)NC(=O)[C@H](CC(=O)O)NC(=O)[C@H](C(C)C)NC(=O)[C@H](CC3CCCCC3)NC(=O)[C@H](CCN)NC(=O)[C@@H](CC(C)C)NC(=O)[C@H](CCCN)NC(=O)[C@H](Cc3ccc(OCC(=O)O)cc3)NC(=O)[C@H](Cc3ccc(-c4ccccc4)cc3)NC(=O)[C@H](Cc3ccc(OCC(=O)O)cc3)NC2=O)c1 [Compound 1798] ({CH2CO}-TY(Carboxymethyl)D[Phe(3-Me)]Y(Carboxymethyl)[Bip]Y(Carboxymethyl)[Orn][dL][Dab][Cha]VDC-NH2; thioether N-14)
3,5.2,C#CC[C@H](NC(=O)[C@H](CCN)NC(=O)[C@@H]1CSCC(=O)N[C@@H](CCN)C(=O)N[C@@H](Cc2ccc(C(=O)O)cc2)C(=O)N[C@@H](CC(=O)O)C(=O)N[C@@H](Cc2cccc(C)c2)C(=O)N[C@@H](Cc2ccc(C(=O)O)cc2)C(=O)N[C@@H](Cc2ccc(-c3ccccc3)cc2)C(=O)N[C@@H](Cc2ccc(C(=O)O)cc2)C(=O)N[C@@H](CCCN)C(=O)N[C@H](CC(C)C)C(=O)N[C@@H](CCN)C(=O)N[C@@H](CC2CCCCC2)C(=O)N[C@@H](C(C)(C)O)C(=O)N[C@@H](CCCN)C(=O)N1)C(N)=O [Compound 1850] ({CH2CO}-[Dab][Phe(4-COOH)]D[Phe(3-Me)][Phe(4-COOH)][Bip][Phe(4-COOH)][Orn][dL][Dab][Cha][Val(3-OH)][Orn]C[Dab][Pra]-NH2; thioether N-14)
4,70,"Cc1cccc(C[C@@H]2NC(=O)[C@H](CC(=O)O)NC(=O)[C@H](Cc3ccc(OCC(=O)O)cc3)NC(=O)[C@H](Cc3ccncc3)NC(=O)CSC[C@@H](C(=O)N[C@@H](CCN)C(N)=O)NC(=O)[C@H](C(C)(C)C(=O)O)NC(=O)[C@H](C(C)C)NC(=O)[C@H](CC3CCCCC3)NC(=O)[C@H](CCN)NC(=O)[C@@H](CC(C)C)NC(=O)[C@H](CCCN)NC(=O)[C@H](Cc3ccc(OCC(=O)O)cc3)NC(=O)[C@H](Cc3ccc(-c4ccccc4)cc3)NC(=O)[C@H](Cc3ccc(OCC(=O)O)cc3)NC2=O)c1 [Compound 2085] ({CH2CO}-[4Pal]Y(Carboxymethyl)D[Phe(3-Me)]Y(Carboxymethyl)[Bip]Y(Carboxymethyl)[Orn][dL][Dab][Cha]V[Asp(3,3-Me2)]C[Dab]-NH2; thioether N-14)"
5,111,Cc1cccc(C[C@@H]2NC(=O)[C@H](CC(=O)O)NC(=O)[C@H](Cc3ccc(OCC(=O)O)cc3)NC(=O)[C@H](Cc3ccncc3)NC(=O)CSC[C@@H](C(=O)N[C@@H](CCN)C(N)=O)NC(=O)[C@H](CO)NC(=O)[C@H](C(C)(C)O)NC(=O)[C@H](CC3CCCCC3)NC(=O)[C@H](CCN)NC(=O)[C@@H](CC(C)C)NC(=O)C3(CC3)NC(=O)[C@H](Cc3ccc(OCC(=O)O)cc3)NC(=O)[C@H](Cc3ccc(-c4ccccc4)cc3)NC(=O)[C@H](Cc3ccc(OCC(=O)O)cc3)NC2=O)c1 [Compound 2082] ({CH2CO}-[4Pal]Y(Carboxymethyl)D[Phe(3-Me)]Y(Carboxymethyl)[Bip]Y(Carboxymethyl)[Ac3c][dL][Dab][Cha][Val(3-OH)]SC[Dab]-NH2; thioether N-14)

# Reference: US20250163104A1, “MACROCYCLIC IMMUNOMODULATORS” (priority 2021, published 2025)
